Legend:
[1] = cited from earlier work
[2] = system: aryl hydrocarbon receptor (AHR); details: 2,3,7,8-TCDD set to 1; cited from earlier work
[3] = system: dioxin-response elements (DREs)-luciferase in Hepa1c1c7-M4P2 cells; assay: luciferase light intensity bioassay in transfected cell line Hepa1c1c7-M4P2; type: cell-based, mouse
Method: (§1) The transfected cells (4×10^5 cells/well) were placed in a 24 well-culture plate. To each well was added 1 mL of culture medium (DMEM+10% FBS). Thereafter, the culture plate was placed in a constant-temperature incubator set at 37° C. and 5% CO2 for two hours to permit cell adhesion.
(§2) The Dioxin (2,3,7,8-TCDD) stock solution with a concentration of 10 μg/mL was subjected to 10-fold serial dilution. 3.22 μl of each diluted solution was taken and added to each well of the culture plate, such that the final concentrations of dioxin in the experimental groups are 10 nM, 1 nM, 100 pM, […], 10 pM, 1 pM and 0.1 pM, respectively. Each experimental group was prepared in quadruplicate. The normal control group was not subjected to any treatment, whereas the solvent control group was treated using 3.22 μl of DMSO. […]
(§3) 100 μl of the lysate obtained in each group was taken and added to each well of a non-transparent 96-well plate, followed by addition of 50 μl of luciferin (which is included in the Luciferase Assay System, (Cat#1500), Promega Cooperation). Finally, the plate was sent to a Beckman coulter DU640B spectrophotometer (set at PMT:1100; read length:0.5; and Gain:1˜100) for automatic detection of the light intensity within 20 seconds. The experimental results thus obtained were analyzed and plotted using statistical analysis, so as to determine whether the results have statistic significance. […]

[4] = system: dioxin-response elements (DREs)-luciferase in Hepa1c1c7-MP cells; assay: luciferase light intensity bioassay in transfected cell line Hepa1c1c7-MP; type: cell-based, mouse
Method: as §1, §2, §3

[5] = 100 pM 2,3,7,8-TCDD, 5, 10, 15 and 20 hours tested

2,3,7,8-tetrachloro-dibenzo-p-dioxin [2,3,7,8-TCDD]
water solubility [1]: 0.0193 ng/mL

Clc1cc2c(c(Cl)c1Cl)Oc1c(Cl)c(Cl)c(Cl)c(Cl)c1O2 [1,2,3,4,6,7,8-HpCDD]
I-TEF [2]: 0.01

Clc1cc2c(oc3c(Cl)c(Cl)c(Cl)c(Cl)c32)c(Cl)c1Cl [1,2,3,4,6,7,8-HpCDF]
I-TEF [2]: 0.01

Clc1cc2oc3c(Cl)c(Cl)c(Cl)c(Cl)c3c2c(Cl)c1Cl [1,2,3,4,7,8,9-HpCDF]
I-TEF [2]: 0.01

Clc1cc2c(cc1Cl)Oc1c(Cl)c(Cl)c(Cl)c(Cl)c1O2 [1,2,3,4,7,8-HxCDD]
I-TEF [2]: 0.1

Clc1cc2oc3c(Cl)c(Cl)c(Cl)c(Cl)c3c2cc1Cl [1,2,3,4,7,8-HxCDF]
I-TEF [2]: 0.1

Clc1cc2c(c(Cl)c1Cl)Oc1cc(Cl)c(Cl)c(Cl)c1O2 [1,2,3,6,7,8-HxCDD]
I-TEF [2]: 0.1

Clc1cc2c(oc3cc(Cl)c(Cl)c(Cl)c32)c(Cl)c1Cl [1,2,3,6,7,8-HxCDF]
I-TEF [2]: 0.1

Clc1cc2c(c(Cl)c1Cl)Oc1c(cc(Cl)c(Cl)c1Cl)O2 [1,2,3,7,8,9-HxCDD]
I-TEF [2]: 0.1

Clc1cc2oc3cc(Cl)c(Cl)c(Cl)c3c2c(Cl)c1Cl [1,2,3,7,8,9-HxCDF]
I-TEF [2]: 0.1

Clc1cc2c(cc1Cl)Oc1c(cc(Cl)c(Cl)c1Cl)O2 [1,2,3,7,8-PeCDD]
I-TEF [2]: 0.5

Clc1cc2oc3cc(Cl)c(Cl)c(Cl)c3c2cc1Cl [1,2,3,7,8-PeCDF]
I-TEF [2]: 0.05

Clc1cc2c(oc3c(Cl)c(Cl)c(Cl)cc32)c(Cl)c1Cl [2,3,4,6,7,8-HxCDF]
I-TEF [2]: 0.1

Clc1cc2c(cc1Cl)Oc1cc(Cl)c(Cl)cc1O2 [2,3,7,8-TCDD, 2,3,7,8-tetrachloro-dibenzo-p-dioxin]
dioxin treatment time giving the most stable and the optimal light intensity result [3, 5]: 15 h
lowest limit of dioxin detection (obvious light intensity changes vs controls) ([3]; 15 hours treatment): 5 pM
dioxin treatment time giving the most stable and the optimal light intensity result [4, 5]: 20 h
lowest limit of dioxin detection (significant light intensity changes vs controls) ([4]; 15 hours treatment): 5 pM
I-TEF [2]: 1

Clc1cc2oc3cc(Cl)c(Cl)cc3c2cc1Cl [2,3,7,8-TCDF]
I-TEF [2]: 0.1

Clc1c(Cl)c(Cl)c2c(c1Cl)Oc1c(Cl)c(Cl)c(Cl)c(Cl)c1O2 [OCDD]
I-TEF [2]: 0.001

Clc1c(Cl)c(Cl)c2c(oc3c(Cl)c(Cl)c(Cl)c(Cl)c32)c1Cl [OCDF]
I-TEF [2]: 0.001
